Structures can show the parent of a compound that is named as a salt.
Assays:
[1] = tested on: NCI-H292; assay: Cytotoxicity MTT assay, NCI-H292; assay type: cell-based, human
From the text: (§1) Table 2 below lists the IC50 values of representative working examples from the assay described and the corresponding cytotoxicity data (MTT assay).

[2] = tested on: KPL4; assay: Cytotoxicity MTT assay, KPL4; assay type: cell-based
From the text: as §1

[3] = Homo sapiens, NCI-H292, MTT assay

Structure (SMILES) | IC50 [1, 3] | IC50 ([2]; KPL4, MTT assay) | also measured
CC(C)(C)[C@H](c1cc(-c2cc(F)ccc2F)cn1Cc1ccccc1)N(CC[C@H](N)C(=O)NCCC(=O)NCCCC[C@H](N)C(=O)O)C(=O)CO [Example M19, N^6—(N-{(2S)-2-Amino-4-[{(1R)-1-[1-benzyl-4-(2,5-difluorophenyl)-1H-pyrrol-2-yl]-2,2-dimethylpropyl}(glycoloyl)amino]butanoyl}-beta-alanyl)-L-lysine/trifluoroacetic acid (1:1)] | 121 nM | – | –
CC(C)(C)[C@H](c1cc(-c2cc(F)ccc2F)cn1Cc1ccccc1)N(CC[C@H](N)C(=O)NCCNC(=O)CNC(=O)C(CC(=O)O)SC[C@H](N)C(=O)O)C(=O)CO (mixture of isomers) [Example M27, 4-[(2-{[2-({(2S)-2-Amino-4-[{(1R)-1-[1-benzyl-4-(2,5-difluorophenyl)-1H-pyrrol-2-yl]-2,2-dimethylpropyl}(glycoloyl)amino]butanoyl}amino)ethyl]amino}-2-oxoethyl)amino]-3-{[(2R)-2-amino-2-carboxyethyl]sulfanyl}-4-oxobutanoic acid-trifluoroacetic acid (1:1)] | 276 nM | – | –
CC(C)(C)[C@H](c1cc(-c2cc(F)ccc2F)cn1Cc1ccccc1)N(CC[C@H](N)C(=O)NCCNC(=O)CN1C(=O)CC(SC[C@H](N)C(=O)O)C1=O)C(=O)CO (stereo partly drawn) [Example M1, S-[1-(2-{[2-({(2S)-2-Amino-4-[{(1R)-1-[1-benzyl-4-(2,5-difluorophenyl)-1H-pyrrol-2-yl]-2,2-dimethylpropyl}(glycoloyl)amino]butanoyl}amino)ethyl]amino}-2-oxoethyl)-2,5-dioxopyrrolidin-3-yl]-L-cysteine/trifluoroacetic acid (1:1)] | 500 nM | 500 nM | –
CC(C)(C)[C@H](c1cc(-c2cc(F)ccc2F)cn1Cc1ccccc1)N(CC[C@H](N)C(=O)NCCC(=O)N[C@H](CCC(=O)O)C(=O)O)C(=O)CO [Example M24, N-{(2S)-2-Amino-4-[{(1R)-1-[1-benzyl-4-(2,5-difluorophenyl)-1H-pyrrol-2-yl]-2,2-dimethylpropyl}(glycoloyl)amino]butanoyl}-beta-alanyl-D-glutamic acid-trifluoroacetic acid] | 167 nM | 500 nM | –
CC(C)(C)[C@H](c1cc(-c2cc(F)ccc2F)cn1Cc1ccccc1)N(CCCN)C(=O)CO [Example M9, N-(3-Aminopropyl)-N-{(1R)-1-[1-benzyl-4-(2,5-difluorophenyl)-1H-pyrrol-2-yl]-2,2-dimethylpropyl}-2-hydroxyacetamide] | – | – | IC50 ([1]; Homo sapiens, NCI-H292): 0.774 nM; IC50 ([2]; KPL4): 0.257 nM
CC(C)(C)[C@H](c1cc(-c2cc(F)ccc2F)cn1Cc1ccccc1)N(CC[C@H](N)C(=O)NCCNC(=O)CNC(=O)C(CC(=O)O)SC[C@H](N)C(=O)O)C(=O)CO (single isomer, unassigned) [Example M15] | 133 nM | 169 nM | –
CC(C)(C)[C@H](c1cc(-c2cc(F)ccc2F)cn1Cc1ccccc1)N(CC[C@H](N)C(=O)NCCNC(=O)CC[C@H](N)C(=O)O)C(=O)CO [Example M18, N-[2-({(2S)-2-Amino-4-[{(1R)-1-[1-benzyl-4-(2,5-difluorophenyl)-1H-pyrrol-2-yl]-2,2-dimethylpropyl}(glycoloyl)amino]butanoyl}amino)ethyl]-L-glutamine/trifluoroacetic acid (1.1)] | 35.5 nM | – | –
CC(C)(C)[C@H](c1cc(-c2cc(F)ccc2F)cn1Cc1ccccc1)N(CC[C@H](N)C(=O)NCCC(=O)N[C@@H](CCC(=O)O)C(=O)O)C(=O)CO [Example M23, N-{(2S)-2-Amino-4-[{(1R)-1-[1-benzyl-4-(2,5-difluorophenyl)-1H-pyrrol-2-yl]-2,2-dimethylpropyl}(glycoloyl)amino]butanoyl}-beta-alanyl-L-glutamic acid-trifluoroacetic acid (1.1)] | 500 nM | 500 nM | –
CC(C)(C)[C@H](c1cc(-c2cc(F)ccc2F)cn1Cc1ccccc1)N(CC[C@H](N)C(=O)O)C(=O)CO [Example M17, (2S)-2-Amino-4-[{(1R)-1-[1-benzyl-4-(2,5-difluorophenyl)-1H-pyrrol-2-yl]-2,2-dimethylpropyl}(glycoloyl)amino]butanoic acid hydrochloride (1.1)] | 7.35 nM | – | –
CC(C)(C)[C@H](c1cc(-c2cc(F)ccc2F)cn1Cc1ccccc1)N(CC[C@H](N)C(=O)NCCNC(=O)CNC(=O)C(CC(=O)O)SC[C@H](N)C(=O)O)C(=O)CO (single isomer, unassigned) [Example M16] | 143 nM | 195 nM | –
CC(C)(C)[C@H](c1cc(-c2cc(F)ccc2F)cn1Cc1ccccc1)N(CCCN)C(=O)CSC[C@H](NC(=O)CCOCCOCCOCCOCCNC(=O)CNC(=O)CC(SC[C@H](N)C(=O)O)C(=O)O)C(=O)O (stereo partly drawn) [Example M20, (1R,4R,27R,33R)-1-Amino-32-(3-aminopropyl)-33-[1-benzyl-4-(2,5-difluorophenyl)-1H-pyrrol-2-yl]-34,34-dimethyl-6,9,25,31-tetraoxo-13,16,19,22-tetraoxa-3,29-dithia-7,10,26,32-tetraazapentatriacontane-1,4,27-tricarboxylic acid/trifluoroacetic acid (1:2)] | 149 nM | 213 nM | –
CC(C)(C)[C@H](c1cc(-c2cc(F)ccc2F)cn1Cc1ccccc1)N(CC[C@H](N)C(=O)NCCNC(=O)CNC(=O)CC(SC[C@H](N)C(=O)O)C(=O)O)C(=O)CO (single isomer, unassigned) [Example M14] | – | – | IC50 ([1]; MTT assay): 174 nM; IC50 ([2]; MTT assay): 182 nM
CC(C)(C)[C@H](c1cc(-c2cc(F)ccc2F)cn1Cc1ccccc1)N(CC[C@H](N)C(=O)NCCNC(=O)CNC(=O)CC(SC[C@H](N)C(=O)O)C(=O)O)C(=O)CO (single isomer, unassigned) [Example M13] | 152 nM | 169 nM | –
CC(C)(C)[C@H](c1cc(-c2cc(F)ccc2F)cn1Cc1ccccc1)N(CC[C@H](N)C(=O)NCCNC(=O)CSC[C@H](N)C(=O)O)C(=O)CO [Example M7, S-(2-{[2-({(2S)-2-Amino-4-[{(1R)-1-[1-benzyl-4-(2,5-difluorophenyl)-1H-pyrrol-2-yl]-2,2-dimethylpropyl}(glycoloyl)amino]butanoyl}amino)ethyl]amino}-2-oxoethyl)-L-cysteine/trifluoroacetic acid (1:1)] | 22.2 nM | 92.5 nM | –
CC(C)(C)[C@H](c1cc(-c2cc(F)ccc2F)cn1Cc1ccccc1)N(CCCN)C(=O)CSC[C@H](NC(=O)CCC(=O)O)C(=O)O [Example M12, 4-{[(1R)-2-({2-[(3-Aminopropyl) {(1R)-1-[1-benzyl-4-(2,5-difluorophenyl)-1H-pyrrol-2-yl]-2,2-dimethylpropyl}amino]-2-oxoethyl}sulphanyl)-1-carboxyethyl]amino}-4-oxobutanoic acid/trifluoroacetic acid (1:1)] | 33 nM | – | –
CC(C)(C)[C@H](c1cc(-c2cc(F)ccc2F)cn1Cc1ccccc1)N(CCCN)C(=O)CSC[C@H](N)C(=O)O [Example M11, S-{2-[(3-Aminopropyl){(1R)-1-[1-benzyl-4-(2,5-difluorophenyl)-1H-pyrrol-2-yl]-2,2-dimethyl-propyl}amino]-2-oxoethyl}-L-cysteine/trifluoroacetic acid (1:2)] | 0.0432 nM | – | –
